Read-outs that look alike come from different tables or passages of the source.
Key:
BRM = BRM (Homo sapiens, UniProt P51531); test: ATPase catalytic activity assay of BRM (ADP-Glo); assay type: biochemical; conditions: for IC50: read-out: BRM IC50 (μM)*
How it was run: (§1)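 Measurement is luminescence, reflecting ADP produced by ATPase turnover. The two-step ADP-Glo detection consists of ATP depletion for 40 min and ADP-to-ATP conversion with luciferase for 60 min, both at room temperature.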

BRG-1 = BRG-1 (Homo sapiens, UniProt P51532); test: ATPase catalytic activity assay of BRG-1 (ADP-Glo); assay type: biochemical; conditions: ATPase catalytic activity, ADP-Glo; for IC50: read-out: BRG1 IC50 (μM)*; for Emax: read-out: BRG1 Max % Inhibition
How it was run: as §1

Chain of BRG-1 (P51532 whole entry): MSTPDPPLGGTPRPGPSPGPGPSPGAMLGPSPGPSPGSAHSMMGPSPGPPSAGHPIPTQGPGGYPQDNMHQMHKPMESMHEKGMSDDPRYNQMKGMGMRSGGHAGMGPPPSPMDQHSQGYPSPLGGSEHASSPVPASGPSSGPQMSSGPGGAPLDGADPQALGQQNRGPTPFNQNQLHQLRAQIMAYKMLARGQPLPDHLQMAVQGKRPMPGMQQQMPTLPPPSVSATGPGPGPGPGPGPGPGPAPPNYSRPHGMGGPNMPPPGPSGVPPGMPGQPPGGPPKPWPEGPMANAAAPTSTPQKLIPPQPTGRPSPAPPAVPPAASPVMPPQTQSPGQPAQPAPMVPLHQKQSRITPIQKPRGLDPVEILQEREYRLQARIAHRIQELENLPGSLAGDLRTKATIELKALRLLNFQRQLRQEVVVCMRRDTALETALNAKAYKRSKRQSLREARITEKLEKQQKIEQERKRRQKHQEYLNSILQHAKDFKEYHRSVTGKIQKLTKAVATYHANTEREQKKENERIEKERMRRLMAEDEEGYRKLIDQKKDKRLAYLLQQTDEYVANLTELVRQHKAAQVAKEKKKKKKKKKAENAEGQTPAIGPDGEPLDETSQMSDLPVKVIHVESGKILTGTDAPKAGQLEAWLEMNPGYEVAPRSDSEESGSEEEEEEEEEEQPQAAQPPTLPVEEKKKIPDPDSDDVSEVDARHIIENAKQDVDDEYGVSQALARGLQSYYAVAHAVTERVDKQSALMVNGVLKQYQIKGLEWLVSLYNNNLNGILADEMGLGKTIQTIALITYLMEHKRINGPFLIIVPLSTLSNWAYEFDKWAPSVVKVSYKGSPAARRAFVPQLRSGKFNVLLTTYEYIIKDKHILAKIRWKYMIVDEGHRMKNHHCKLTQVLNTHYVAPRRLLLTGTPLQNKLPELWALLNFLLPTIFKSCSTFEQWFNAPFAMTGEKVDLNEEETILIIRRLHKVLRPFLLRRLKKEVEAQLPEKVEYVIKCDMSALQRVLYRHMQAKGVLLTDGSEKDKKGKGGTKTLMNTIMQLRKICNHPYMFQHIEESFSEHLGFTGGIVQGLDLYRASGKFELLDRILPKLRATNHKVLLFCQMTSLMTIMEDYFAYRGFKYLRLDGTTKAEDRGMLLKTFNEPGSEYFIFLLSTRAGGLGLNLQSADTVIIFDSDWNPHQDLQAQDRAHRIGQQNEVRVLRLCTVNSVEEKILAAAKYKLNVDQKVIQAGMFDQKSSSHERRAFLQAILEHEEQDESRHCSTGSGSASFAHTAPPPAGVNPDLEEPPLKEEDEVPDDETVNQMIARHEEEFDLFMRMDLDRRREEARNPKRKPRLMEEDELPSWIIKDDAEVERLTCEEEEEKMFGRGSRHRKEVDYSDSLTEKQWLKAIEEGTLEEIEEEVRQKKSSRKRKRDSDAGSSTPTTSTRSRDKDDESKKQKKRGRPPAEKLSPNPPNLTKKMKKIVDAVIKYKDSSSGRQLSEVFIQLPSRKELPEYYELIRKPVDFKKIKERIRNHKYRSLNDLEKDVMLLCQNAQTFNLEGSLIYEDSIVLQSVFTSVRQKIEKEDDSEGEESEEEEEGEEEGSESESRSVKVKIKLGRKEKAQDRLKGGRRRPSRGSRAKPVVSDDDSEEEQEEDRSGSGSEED
Chain of BRM (P51531 whole entry): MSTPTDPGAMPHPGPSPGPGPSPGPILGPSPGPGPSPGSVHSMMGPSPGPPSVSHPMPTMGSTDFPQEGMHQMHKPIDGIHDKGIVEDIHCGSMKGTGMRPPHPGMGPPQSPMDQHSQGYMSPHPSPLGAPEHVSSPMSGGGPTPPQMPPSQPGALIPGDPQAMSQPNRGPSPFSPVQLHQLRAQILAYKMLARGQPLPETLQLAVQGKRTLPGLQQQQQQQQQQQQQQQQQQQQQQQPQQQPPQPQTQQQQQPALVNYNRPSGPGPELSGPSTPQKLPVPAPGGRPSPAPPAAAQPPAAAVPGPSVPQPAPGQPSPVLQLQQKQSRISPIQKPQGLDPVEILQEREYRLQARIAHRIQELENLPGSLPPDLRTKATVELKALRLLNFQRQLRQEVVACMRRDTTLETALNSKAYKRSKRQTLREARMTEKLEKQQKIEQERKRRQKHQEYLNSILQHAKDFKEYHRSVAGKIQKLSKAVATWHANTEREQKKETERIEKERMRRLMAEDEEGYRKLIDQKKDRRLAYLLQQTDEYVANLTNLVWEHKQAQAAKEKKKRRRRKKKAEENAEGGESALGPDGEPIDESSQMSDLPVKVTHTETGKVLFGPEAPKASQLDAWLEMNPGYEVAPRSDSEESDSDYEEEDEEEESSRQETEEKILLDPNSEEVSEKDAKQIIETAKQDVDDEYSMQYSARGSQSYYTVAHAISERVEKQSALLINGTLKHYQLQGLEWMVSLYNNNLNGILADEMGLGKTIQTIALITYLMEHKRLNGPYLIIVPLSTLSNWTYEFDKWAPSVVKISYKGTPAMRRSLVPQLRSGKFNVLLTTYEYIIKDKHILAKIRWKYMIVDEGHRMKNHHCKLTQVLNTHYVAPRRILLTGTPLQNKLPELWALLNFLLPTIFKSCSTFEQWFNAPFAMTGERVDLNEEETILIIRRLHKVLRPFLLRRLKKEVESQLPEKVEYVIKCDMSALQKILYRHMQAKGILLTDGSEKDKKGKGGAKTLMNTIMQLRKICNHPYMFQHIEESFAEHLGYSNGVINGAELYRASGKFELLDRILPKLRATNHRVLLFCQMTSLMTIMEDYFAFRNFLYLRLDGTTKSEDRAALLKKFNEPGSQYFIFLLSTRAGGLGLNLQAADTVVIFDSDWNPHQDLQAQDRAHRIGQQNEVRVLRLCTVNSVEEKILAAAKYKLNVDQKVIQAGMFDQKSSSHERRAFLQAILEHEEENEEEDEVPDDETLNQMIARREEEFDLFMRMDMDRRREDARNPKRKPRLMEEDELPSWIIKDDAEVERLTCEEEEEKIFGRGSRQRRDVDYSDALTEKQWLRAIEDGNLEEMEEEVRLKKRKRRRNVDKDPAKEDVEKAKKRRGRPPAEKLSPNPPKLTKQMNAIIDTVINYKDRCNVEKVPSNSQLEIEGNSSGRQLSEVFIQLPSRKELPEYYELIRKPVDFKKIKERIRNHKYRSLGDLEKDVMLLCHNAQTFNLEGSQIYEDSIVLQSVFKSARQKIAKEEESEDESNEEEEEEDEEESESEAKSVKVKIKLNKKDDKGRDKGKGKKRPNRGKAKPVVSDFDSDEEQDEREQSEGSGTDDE

SMILES	BRM Max % Inhibition (BRM)	IC50 (BRM)	IC50 (BRG-1)	Emax (BRG-1)	BRM Max % Inhibition (BRM; 30 nM BRM, 400 μM ATP)	IC50 (BRM; 30 nM BRM, 400 μM ATP)	IC50 (BRG-1; 30 nM BRG-1, 400 μM ATP)	Emax (BRG-1; 30 nM BRG-1, 400 μM ATP)
Cc1cc(-c2cccc(-c3csc(NC(=O)CNC(=O)c4cccc(C(C)(C)CO)c4)n3)n2)ncn1 [Compound 230, 3-(2-hydroxy-1,1-dimethyl-ethyl)-N-[2-[[4-[6-(6-methylpyrimidin-4-yl)-2-pyridyl]thiazol-2-yl]amino]-2-oxo-ethyl]benzamide]	>95%	< 0.1 µM	0.1 to 1 µM	> 80%				
Cc1cc(-c2cccc(-c3csc(NC(=O)CNC(=O)c4ccc5c(c4)[C@@](C)(CO)CCC5)n3)n2)ncn1 [Compound 207, (S)-8-(hydroxymethyl)-8-methyl-N-(2-((4-(6-(6-methylpyrimidin-4-yl)pyridin-2-yl)thiazol-2-yl)amino)-2-oxoethyl)-5,6,7,8-tetrahydronaphthalene-2-carboxamide]	>90%	0.1 to 1 µM	> 5 µM	> 50%				
Cn1ncc(-c2cccc(-c3csc(NC(=O)CNC(=O)c4ccc5c(c4)C(C)(CO)CC5)n3)n2)n1 (stereo not shown) [Compound 155, 3-(hydroxymethyl)-3-methyl-N-(2-((4-(6-(2-methyl-2H-1,2,3-triazol-4-yl)pyridin-2-yl)thiazol-2-yl)amino)-2-oxoethyl)-2,3-dihydro-1H-indene-5-carboxamide]	>90%	0.1 to 1 µM	1 to 5 µM	> 60%				
CC1(C#N)CCOc2ccc(C(=O)NCC(=O)Nc3nc(-c4cccc(C5COC5)c4)cs3)cc21 (stereo in doubt) [Compound 423, (S)-4-cyano-4-methyl-N-(2-((4-(3-(oxetan-3-yl)phenyl)thiazol-2-yl)amino)-2-oxoethyl)chromane-6-carboxamide]					>95%	< 0.1 µM	0.1 to 1 µM	> 95%
C[C@@H]1CN(c2cccc(-c3csc(NC(=O)CNC(=O)c4ccc5c(c4)C(C)(C#N)CNC5)n3)c2)C[C@H](C)O1 (stereo in doubt) [Compound 287, (S)-4-cyano-N-(2-((4-(3-((cis)-2,6-dimethylmorpholino)phenyl)thiazol-2-yl)amino)-2-oxoethyl)-4-methyl-1,2,3,4-tetrahydroisoquinoline-6-carboxamide]	>95%	< 0.1 µM	< 0.1 µM	> 95%				
C[C@@H]1CN(c2cccc(-c3csc(NC(=O)CNC(=O)c4ccc5c(c4)[C@@]4(CCC[C@H]4O)CC5)n3)c2)C[C@H](C)O1 [Compound 188, (1R,2R)-N-(2-((4-(3-((cis)-2,6-dimethylmorpholino)phenyl)thiazol-2-yl)amino)-2-oxoethyl)-2-hydroxy-2′,3′-dihydrospiro[cyclopentane-1,1′-indene]-6′-carboxamide]	>90%	0.1 to 1 µM	1 to 5 µM	> 50%				
C[C@@H]1CN(c2cccc(-c3csc(NC(=O)CNC(=O)c4cccc([C@]5(F)C[C@@](C)(O)C5)c4)n3)c2)C[C@H](C)O1 [Compound 317, N-(2-((4-(3-((cis)-2,6-dimethylmorpholino)phenyl)thiazol-2-yl)amino)-2-oxoethyl)-3-((1s,3s)-1-fluoro-3-hydroxy-3-methylcyclobutyl)benzamide]	>95%	< 0.1 µM	1 to 5 µM	> 95%				
CC1(C#N)CCOc2ccc(C(=O)NCC(=O)Nc3nc(-c4cccc(C5(F)COC5)c4)cs3)cc21 (stereo in doubt) [Compound 422, (S)-4-cyano-N-(2-((4-(3-(3-fluorooxetan-3-yl)phenyl)thiazol-2-yl)amino)-2-oxoethyl)-4-methylchromane-6-carboxamide]					>95%	0.1 to 1 µM	1 to 5 µM	> 95%
C[C@@H]1CN(c2cccc(-c3csc(NC(=O)CNC(=O)c4ccc5c(c4)[C@H](CO)CC5)n3)n2)C[C@H](C)O1 [Compound 162, (3R)-N-[2-[[4-[6-[(cis)-2,6-dimethylmorpholin-4-yl]-2-pyridyl]thiazol-2-yl]amino]-2-oxo-ethyl]-3-(hydroxymethyl)indane-5-carboxamide]	>70%	0.1 to 1 µM	> 5 µM	> 40%				
Cc1cc(-c2cccc(-c3csc(NC(=O)CNC(=O)c4cccc(S(=O)(=O)C(C)C)c4)n3)c2)ncn1 [Compound 127, 3-isopropylsulfonyl-N-[2-[[4-[3-(6-methylpyrimidin-4-yl)phenyl]thiazol-2-yl]amino]-2-oxoethyl] benzamide]	>95%	< 0.1 µM	0.1 to 1 µM	> 90%				
CC1(CO)CCc2ccc(C(=O)NCC(=O)Nc3nc(-c4cccc(-c5ccncc5)c4)cs3)cc21 (stereo not shown) [Compound 102]	>95%	< 0.1 µM	0.1 to 1 µM	> 80%				
C[C@@H]1CN(c2cccc(-c3csc(NC(=O)CNC(=O)c4ccc5c(c4)[C@@H]([C@@H](C)O)CC5)n3)n2)C[C@H](C)O1 [Compound 142, (3S)-N-[2-[[4-[6-[(cis)-2,6-dimethylmorpholin-4-yl]-2-pyridyl]thiazol-2-yl]amino]-2-oxo-ethyl]-3-[(1R)-1-hydroxyethyl]indane-5-carboxamide]	>95%	< 0.1 µM	0.1 to 1 µM	> 80%				
C[C@@H]1CN(c2cccc(-c3csc(NC(=O)CNC(=O)c4ccc5c(c4)[C@](C)(CO)CO5)n3)n2)C[C@H](C)O1 (single isomer, unassigned) [Compound 132]	>80%	0.1 to 1 µM	> 5 µM	> 50%				
Cn1cnc2ccc(-c3csc(NC(=O)CNC(=O)c4ccc5c(c4)[C@](C)(CO)CC5)n3)cc21 [Compound 175, (R)-3-(hydroxymethyl)-3-methyl-N-(2-((4-(1-methyl-1H-benzo[d]imidazol-6-yl)thiazol-2-yl)amino)-2-oxoethyl)-2,3-dihydro-1H-indene-5-carboxamide]	>90%	0.1 to 1 µM	1 to 5 µM	> 60%				
C[C@@H]1CN(c2cccc(-c3csc(NC(=O)CNC(=O)c4ccc(Cl)c(C(C)(C)CO)c4)n3)n2)C[C@H](C)O1 [Compound 241, 4-chloro-N-[2-[[4-[6-[(cis)-2,6-dimethylmorpholin-4-yl]-2-pyridyl]thiazol-2-yl]amino]-2-oxo-ethyl]-3-(2-hydroxy-1,1-dimethyl-ethyl)benzamide]	>95%	< 0.1 µM	0.1 to 1 µM	> 90%				
CCC(C)(O)c1cccc(C(=O)NCC(=O)Nc2nc(-c3cccc(-c4ccncc4)c3)cs2)c1 (stereo not shown) [Compound 79, 3-(2-hydroxybutan-2-yl)-N-(2-oxo-2-((4-(3-(pyridin-4-yl)phenyl)thiazol-2-yl)amino)ethyl)benzamide]	>70%	0.1 to 1 µM	0.1 to 1 µM	> 50%				
C[C@@H]1CN(c2cccc(-c3csc(NC(=O)CNC(=O)c4cccc5c4OCC[C@@]5(C)C#N)n3)c2)C[C@H](C)O1 [Compound 146, (R)-4-cyano-N-(2-((4-(3-((cis)-2,6-dimethylmorpholino)phenyl)thiazol-2-yl)amino)-2-oxoethyl)-4-methylchroman-8-carboxamide]	>70%	0.1 to 1 µM	> 5 µM	> 30%				
C[C@@]1(CO)CCc2c(C(=O)NCC(=O)Nc3nc(-c4cccc(-c5ccncc5)c4)cs3)cccc21 [Compound 197]		1 to 5 µM	> 5 µM	< 30%				
CN1CCOc2ccc(-c3csc(NC(=O)CNC(=O)c4ccc5c(c4)[C@](C)(CO)CC5)n3)cc21 [Compound 173, (R)-3-(hydroxymethyl)-3-methyl-N-(2-((4-(4-methyl-3,4-dihydro-2H-benzo[b][1,4]oxazin-6-yl)thiazol-2-yl)amino)-2-oxoethyl)-2,3-dihydro-1H-indene-5-carboxamide]	>95%	0.1 to 1 µM	0.1 to 1 µM	> 80%				
C[C@@H]1CN(c2cccc(-c3csc(NC(=O)CNC(=O)c4ccc5c(c4)[C@@](C)(CO)CN5C)n3)c2)C[C@H](C)O1 [Compound 404, (R)-N-(2-((4-(3-((cis)-2,6-dimethylmorpholino)phenyl)thiazol-2-yl)amino)-2-oxoethyl)-3-(hydroxymethyl)-1,3-dimethylindoline-5-carboxamide]	>80%	0.1 to 1 µM	> 5 µM	> 80%				
O=C(CNC(=O)c1ccc2c(c1)C1(CCNC1=O)CC2)Nc1nc(-c2cccc(-c3ccncc3)c2)cs1 (stereo not shown) [Compound 108]	>95%	0.1 to 1 µM	1 to 5 µM	> 80%				
C[C@@H]1CN(c2cccc(-c3csc(NC(=O)CNC(=O)c4ccc5c(c4)CCCOC5)n3)n2)C[C@H](C)O1 [Compound 296, N-(2-((4-(6-((cis)-2,6-dimethylmorpholino)pyridin-2-yl)thiazol-2-yl)amino)-2-oxoethyl)-1,3,4,5-tetrahydrobenzo[c]oxepine-7-carboxamide]	>95%	< 0.1 µM	< 0.1 µM	> 95%				
COC(=O)N1CCC[C@H](c2csc(NC(=O)CNC(=O)c3ccc4c(c3)C(C)(F)COC4)n2)C1 (stereo in doubt) [Compound 301, methyl (S)-3-(2-(2-((R)-4-fluoro-4-methylisochromane-6-carboxamido)acetamido)thiazol-4-yl)piperidine-1-carboxylate]	>95%	0.1 to 1 µM	1 to 5 µM	> 95%				

— patent publication US12685735B2 (Foghorn Therapeutics Inc., priority 2020, dated 2026)
